Results from patent publication US6121274A, “Dihydrobenzofurane” (Byk Gulden Lomberg Chemische Fabrik GmbH, priority 1994, dated 2000).

Each compound was assayed on PDE IV (assay: Inhibition of PDE IV activity (Bauer and Schwabe method adapted to microtiter plates)). Details: Table A; two-step PDE / 5'-nucleotidase assay, ion-exchange separation.
Type: biochemical

| SMILES | Inhibition of PDE IV activity, -log IC50 |
| --- | --- |
| COc1ccc(C(=O)Nc2c(Cl)cncc2Cl)c2c1OC1(CCCC1)C2 [Compound 2, 2,3-Dihydro-7-methoxybenzofuran-2-spiro-1'-cyclopentan-4-carboxylic acid-N-3,5-dichloro-4-pyridylamide] | 9.42 |
| COc1ccc(C(=O)Nc2c(F)cccc2F)c2c1OC1(CCCC1)C2 [Compound 8, 2,3-Dihydro-7-methoxybenzofuran-2-spiro-1'-cyclopentane-4-carboxylic acid-2,6-difluoroanilide] | 8.42 |
| O=C(Nc1c(Cl)cncc1Cl)c1ccc(OC(F)F)c2c1CC1(CCCC1)O2 [Compound 3, 7-Difluoromethoxy-2,3-dihydrobenzofuran-2-spiro-1'-cyclopentane-4-carboxylic acid-N-3,5-dichloro-4-pyridylamide] | 9.87 |
| COc1ccc(C(=O)Nc2c(Cl)cncc2Cl)c2c1OC1(CCCCC1)C2 [Compound 4, 2,3-dihydro-7-methoxybenzofuran-2-spiro-1'-cyclohexane-4-carboxylic acid-N-3,5-dichloro-4-pyridylamide] | 9.09 |
| CCC1(CC)Cc2c(C(=O)Nc3c(Cl)cncc3Cl)ccc(OC)c2O1 [Compound 6, 2,2-Diethyl-2,3-dihydro-7-methoxybenzofuran-4-carboxylic acid-N-3,5-dichloro-4-pyridylamide] | 8.63 |
| COc1ccc(C(=O)Nc2c(Cl)cncc2Cl)c2c1OC(C)(C)C2 [Compound 1, 2,3-Dihydro-2,2-dimethyl-7-methoxybenzofuran-4-carboxylic acid-N-3,5-dichloro-4-pyridylamide] | 8.47 |
| COc1ccc(C(=O)Nc2c(Cl)cccc2Cl)c2c1OC1(CCCC1)C2 [Compound 7, 2,3-Dihydro-7-methoxybenzofuran-2-spiro-1'-cyclopentane-4-carboxylic acid-2,6-dichloroanilide] | 8.57 |
| COc1ccc(C(=O)Nc2c(Cl)cncc2Cl)c2c1OC1(CCOCC1)C2 [Compound 5, 2,3-Dihydro-7-methoxybenzofuran-2-spiro-1'-(4'-oxacyclohexane)-4-carboxylic acid-N-3,5-dichloro-4-pyridylamide] | 8.57 |
